Test results as given in patent US20180140578A1, “METHODS AND COMPOSITIONS FOR THE DIAGNOSIS AND SELECTIVE TREATMENT OF CANCER” (Board of Regents of the University of Texas System, priority 2016, published 2018).
Entries after “also recorded” stand apart in the source; their conditions may differ.

Tests used:
[1] = tested on: tumors derived from HCT-116 cells expressing RBM39 G268V; assay: Mouse xenograft model, HCT-116 RBM39 G268V; type: in vivo, Nod-Scid IL-2Rγ KO mice
Experimental: All animal work was approved by the Institutional Animal Care and Use Committee at UTSW. UTSW is accredited by the Association for Assessment and Accreditation of Laboratory Animal Care International (AAALAC). Animals were obtained from the UTSW Breeding Core Facility. Nod-Scid IL-2Rγ KO mice were implanted with 5 million parental HCT-116 cells or HCT-116 cells expressing RBM39 G268V in a volume of 0.1 ml in the left flank. Tumor volumes were measured every 2-4 days with calipers. Volume is calculated as (L*W^2)*3.14)/6.

[2] = biological target: T1, RBM39-3xFLAG with DDA1, DDB1, CUL4A (Homo sapiens, UniProt Q14498+Q66K64); assay: In vitro formation of RBM39-CUL4-DCAF15 complex in lysates; type: binding; conditions: indisulam dose-dependent manner
T1 construct: endogenous in cells; host or cells: HCT-116 RBM39-3xFLAG knock-in cells (treated cells in A90)
Experimental: First, we reconstituted formation of the RBM39-CUL4-DCAF15 complex in vitro (FIG. 4, panel A).
Anti-Flag M2 antibody (Sigma-Aldrich) was coupled to Dynabeads M-270 epoxy beads (Life Technologies) at the ratio of 10 μg of antibody/mg beads. […] Frozen cells were then pulverized in the a cryomill (Retsch) with one 25 mm steel ball and five cycles of three min at 25 Hz with intermittent cooling in liquid nitrogen. […] The lysates were centrifuged at 8000 g for 5 min at 4° C. 12 mg of conjugated Anti-Flag magnetic beads were mixed with clarified lysates for 5 min at 4° C. on a rotating platform, followed by three washes with IP buffer. Bound proteins were eluted with 1 mg/ml 3xFLAG peptide, followed by SDS-PAGE on a 10% Bis Tris gel. After brief electrophoresis, bands containing all the proteins were cut with clean blades. For western blotting of co-immunoprecipitated proteins, anti-DDA1 (ProteinTech, 14995-1-AP, 1:1000), anti-DDB1 (Abcam, ab109027, 1;10000), anti-CUL4A (Cell Signaling, 2699, 1:1000), anti-CUL4B (ProteinTech, 12916-1-AP, 1:1000) were used.

[3] = tested on: tumors derived from parental HCT-116 cells; conditions: IV 25 mg/kg for 8 days; immune deficient mice; cited from earlier work
[4] = tested on: HCT-116 RBM39 G268V knock-in cells; assay: Cell viability assay, RBM39 G268V knock-in; type: cell-based, human
Experimental: (§1) 12-point dose responses were performed on 96-well assay plates with cell plating (1500-4000 cell per well) on day 1, compound addition on day 2, and survival measurement on day 5. Compounds were diluted in DMSO before adding to the cells. Final DMSO concentration was 0.5%. Cell survival assay was performed using CellTiter-Glo Luminescent Cell Viability Assay kit (Promega) that measures cellular ATP content. Luminescence was recorded by EnVison multimode plate reader (Perkin Elmer). IC50 was determined with GraphPad Prism using baseline correction (by normalizing to DMSO control), the asymmetric (five parameter) equation and least squares fit.
(§2) sgRNA targeting RBM39 (5′-[…]-3′) was cloned into the pSpCas9(BB)-2A-Puro (PX459) vector (Addgene 62988). For RBM39 G268V knock-in, 1 million HCT-116 or H1155 cells were nucleofected (using 4D-Nucleofector, Lonza) with PX459-RBM39 sgRNA and the single-stranded oligo 5′-[…] […] […] […]-3′ (SEQ ID NO: 13).

[5] = tested on: H1155 RBM39 G268V knock-in cells; assay: Cell viability assay, RBM39 G268V knock-in; type: cell-based, human
Experimental: as §1, §2

Structure (SMILES): NS(=O)(=O)c1ccc(S(=O)(=O)Nc2cccc3c(Cl)c[nH]c23)cc1 [Indisulam, indisulam]
- tumor response ([1]; 25 mg/kg indisulam intravenous once a day for eight days, RBM39 G268V): grew at a rate indistinguishable from that of the control group; also recorded: resistant
- Average maximal weight loss from start of therapy to 1 day post final dose ([1]; G268V xenograft, 25 mg/kg once a day for eight days): 8.4%
- co-purification of DDA1, DDB1, CUL4A with RBM39-3xFLAG in lysates [2]: co-purified
- tumor response (previously shown) [3]: regression
- IC50 ([4]; Homo sapiens, HCT-116, two independent RBM39 G268V knock-in HCT-116 clones): 38.9 µM
- IC50 ([4]; two independent RBM39 G268V knock-in HCT-116 clones): 52.2 µM
- effect of G268V editing on indisulam sensitivity [5]: indisulam resistance
